Entries after “also recorded” stand apart in the source; their conditions may differ.
Tests used:
Format in all cases: in vivo, C57BL6 mice
gut microbiota = test: Gut microbiota diversity (Shannon alpha diversity) from shotgun metagenomic sequencing of stool of treated mice; conditions: stools at end
Protocol: (§1) In the methods described for each of these examples, C57BL6 mice at 6 weeks of age were allowed to be appropriately acclimated before the start of the change in diet and treatments. For Experiment 1 (Example 1), thirty-two mice were evenly distributed into four groups with Group 1 as the control diet, no treatment, Group 2 as the high-fat diet, treat with DMSO control, Group 3 as the high-fat diet, treated with 12.5 μg of Ascr #7/mouse per injection (0.5 mg/kg dose assuming a 25 gm mouse), Group 4 as the high-fat diet, treated with 4.1 μg Ascr #9/mouse per injection (0.164 mg/kg dose assuming a 25 gm mouse). […]
(§2) DNA was extracted using the Qiagen MagAttract PowerSoil DNA KF kit (Formerly MO Bio PowerSoil DNA Kit) using a KingFisher robot. DNA quality was evaluated visually via gel electrophoresis and quantified using a Qubit 3.0 fluorometer (Thermo-Fischer, Waltham, Mass., USA). […]
(§3) Paired-end sequencing (150 bp×2) was done on a NextSeq 500 in medium-output mode. Shotgun metagenomic sequence reads were processed with the Sunbeam pipeline. […] Processing took part in four steps: adapter removal, read trimming, low-complexity reads removal, and host-sequence read removal. […] Low-complexity sequences were detected with Komplexity v0.3.6.
(§4) The remaining reads were taxonomically classified using Kraken2 with the MiniKraken2_v1 database. […]

[1] = system: Bifidobacterium (e.g., Bifidobacterium catenulatum); test: Differential abundance of Bifidobacterium in gut microbiota of treated mice (stool sequencing); conditions: stools at end
Protocol: as §1, §2, §3, §4

Akkermansia = test: Differential abundance of Akkermansia in gut microbiota of treated mice (stool sequencing); conditions: Experiment 1, mice, 31 days of treatment, stools at end, vs control (FIG. 9)
Protocol: as §1, §2, §3, §4

Adlercreutzia = test: Differential abundance of Adlercreutzia in gut microbiota of treated mice (stool sequencing); conditions: Experiment 1, mice, 31 days of treatment, stools at end, vs control (FIG. 9)
Protocol: as §1, §2, §3, §4

[2] = Stool consistency (Bristol Stool Chart) of treated mice; conditions: Experiment 3, mice, 12.5 μg/mouse IP, stools at end, vs untreated control (FIG. 10)
Protocol: For Experiment 3, ten mice were assigned Group 7 to be treated with DMSO control. Eight mice were assigned to Group 8 to be treated with 12.5 μg of Ascr #7/mouse per injection (0.5 mg/kg dose assuming a 25 gm mouse). Nine mice were assigned to Group 9 to be treated with 12.5 μg of Compound 1/mouse per injection (0.5 mg/kg dose assuming a 25 gm mouse). To make the master stocks, Ascr #7 and Compound 1 were dissolved in DMSO to make 10 μg/uL of the Ascr #7 and Compound 1 master stocks and 12.5 μL of each master stocks were aliquoted into glass vials for each day of injection. Mice from each group were IP injected three times a week for 3 weeks and one day for a total of 10 injections. On each day of IP injection, 987.5 μL of ultra-pure water is added to each master stocks to make 0.125 μg/uL of Ascr #7 and Compound 1 working stocks and 100 μL of each was IP injected into mice. As will be described in greater detail below, Compound 1 refers to the ascaroside derisive:
The methods and compositions described herein may also be used to treat constipation. Constipation, which accompanies various diseases, may be a symptom of underlying defects in either transit of fecal mass through the gut or defecation, a commonly diagnosed functional gastrointestinal disorder. […]

SMILES	alpha diversity of the gut microbiota (Shannon's diversity index) (gut microbiota; Experiment 3, mice, 12.5 μg/mouse IP three times a week, 10 injections, vs DMSO control (FIG. 3))	amount of Bifidobacter in the gut microbiota ([1]; Experiment 1, mice, 31 days of treatment, vs control (FIG. 9))	amount of Bifidobacterium catenulatum in the gut microbiota ([1]; Experiment 3, mice, vs control (FIG. 8))	amount of Akkermansia in the gut microbiota (Akkermansia)	amount of Adlercreutzia in the gut microbiota (Adlercreutzia)	proportion of feces with Type 4 stools (smooth and soft, Bristol Stool Chart) [2]	alpha diversity of the gut microbiota (Shannon's diversity index) (gut microbiota; Experiment 1, high-fat diet mice, 4.1 μg/mouse IP three times a week for 31 days, vs control (FIG. 4))
C[C@H](CC/C=C/C(=O)O)O[C@@H]1O[C@@H](C)[C@H](O)C[C@H]1O [Ascr #7]	increased alpha diversity; also recorded: substantial increase in diversity	increases	specific increase; also recorded: increased significantly	increases; also recorded: increase in the overall amount	increases; also recorded: increase in the overall amount	significantly higher proportion of feces with Type 4 stools	
C[C@H](CCC(=O)O)O[C@@H]1O[C@@H](C)[C@H](O)C[C@H]1O [Ascr #9]				increase in the overall amount	increase in the overall amount		increase in alpha diversity; also recorded: increased
C[C@H](CC/C=C/C(=O)OC(C)(C)C)O[C@@H]1O[C@@H](C)[C@H](O)C[C@H]1O [Compound 1, tert-butyl (2E,6R)-6-{[(2R,3R,5R,6S)-3,5-dihydroxy-6-methyloxan-2-yl]oxy}hept-2-enoate]						significantly higher proportion of feces with Type 4 stools	
